Laboratory results: PubChem BioAssay AID1259407 (Chemical Carcinogenesis Research Information System (CCRIS), 2018)
The source made the active and inactive calls. The rule behind the calls is not given here.

System: CCRIS mutagenicity, Ames/micronucleus/aberration tests
Assay: CCRIS mutagenicity studies
[1] = Test System: AMES SALMONELLA TYPHIMURIUM, Strain/Indicator: TA98, Metabolic Activation: NONE, Method: PREINCUBATION
[2] = Test System: AMES SALMONELLA TYPHIMURIUM, Strain/Indicator: TA100, Metabolic Activation: NONE, Method: PREINCUBATION
[3] = Test System: AMES SALMONELLA TYPHIMURIUM, Strain/Indicator: TA98, Metabolic Activation: NONE, Method: STANDARD PLATE
[4] = Test System: AMES SALMONELLA TYPHIMURIUM, Strain/Indicator: TA98, Metabolic Activation: RAT, LIVER, S-9, AROCLOR 1254, Method: STANDARD PLATE
[5] = Test System: AMES SALMONELLA TYPHIMURIUM, Strain/Indicator: TA100, Metabolic Activation: NONE, Method: STANDARD PLATE
[6] = Test System: AMES SALMONELLA TYPHIMURIUM, Strain/Indicator: TA1535, Metabolic Activation: NONE, Method: STANDARD PLATE
[7] = Test System: AMES SALMONELLA TYPHIMURIUM, Strain/Indicator: TA1537, Metabolic Activation: NONE, Method: STANDARD PLATE
[8] = Test System: AMES SALMONELLA TYPHIMURIUM, Strain/Indicator: TA1538, Metabolic Activation: NONE, Method: STANDARD PLATE

O=C1C=CC(=O)c2c(O)ccc(O)c21
mutagenic call (Test System: AMES SALMONELLA TYPHIMURIUM, Strain/Indicator: TA97, Metabolic Activation: NONE, Method: PREINCUBATION): active; positive | mutagenic call (Test System: AMES SALMONELLA TYPHIMURIUM, Strain/Indicator: TA97, Metabolic Activation: RAT, LIVER, S-9, PHENOBARBITAL AND 5,6-BENZOFLAVONE, Method: PREINCUBATION): active; positive | mutagenic call [1]: inactive; negative | mutagenic call (Test System: AMES SALMONELLA TYPHIMURIUM, Strain/Indicator: TA98, Metabolic Activation: RAT, LIVER, S-9, PHENOBARBITAL AND 5,6-BENZOFLAVONE, Method: PREINCUBATION): inactive; negative | mutagenic call [2]: active; positive | mutagenic call (Test System: AMES SALMONELLA TYPHIMURIUM, Strain/Indicator: TA100, Metabolic Activation: RAT, LIVER, S-9, PHENOBARBITAL AND 5,6-BENZOFLAVONE, Method: PREINCUBATION): active; positive | mutagenic call (Test System: AMES SALMONELLA TYPHIMURIUM, Strain/Indicator: TA102, Metabolic Activation: NONE, Method: PREINCUBATION): active; positive | mutagenic call (Test System: AMES SALMONELLA TYPHIMURIUM, Strain/Indicator: TA102, Metabolic Activation: RAT, LIVER, S-9, PHENOBARBITAL AND 5,6-BENZOFLAVONE, Method: PREINCUBATION): active; positive | mutagenic call (Test System: AMES SALMONELLA TYPHIMURIUM, Strain/Indicator: TA104, Metabolic Activation: NONE, Method: PREINCUBATION): active; positive | mutagenic call (Test System: AMES SALMONELLA TYPHIMURIUM, Strain/Indicator: TA104, Metabolic Activation: RAT, LIVER, S-9, PHENOBARBITAL AND 5,6-BENZOFLAVONE, Method: PREINCUBATION): active; positive | mutagenic call (Test System: AMES SALMONELLA TYPHIMURIUM, Strain/Indicator: TA1535, Metabolic Activation: NONE, Method: PREINCUBATION): inactive; negative | mutagenic call (Test System: AMES SALMONELLA TYPHIMURIUM, Strain/Indicator: TA1535, Metabolic Activation: RAT, LIVER, S-9, PHENOBARBITAL AND 5,6-BENZOFLAVONE, Method: PREINCUBATION): inactive; negative | mutagenic call (Test System: AMES SALMONELLA TYPHIMURIUM, Strain/Indicator: TA1537, Metabolic Activation: NONE, Method: PREINCUBATION): inactive; negative | mutagenic call (Test System: AMES SALMONELLA TYPHIMURIUM, Strain/Indicator: TA1537, Metabolic Activation: RAT, LIVER, S-9, PHENOBARBITAL AND 5,6-BENZOFLAVONE, Method: PREINCUBATION): active; positive | mutagenic call (Test System: AMES SALMONELLA TYPHIMURIUM, Strain/Indicator: TA1538, Metabolic Activation: NONE, Method: PREINCUBATION): inactive; negative | mutagenic call (Test System: AMES SALMONELLA TYPHIMURIUM, Strain/Indicator: TA1538, Metabolic Activation: RAT, LIVER, S-9, PHENOBARBITAL AND 5,6-BENZOFLAVONE, Method: PREINCUBATION): inactive; negative | mutagenic call (Test System: AMES SALMONELLA TYPHIMURIUM, Strain/Indicator: TA2637, Metabolic Activation: NONE, Method: PREINCUBATION): active; positive | mutagenic call (Test System: AMES SALMONELLA TYPHIMURIUM, Strain/Indicator: TA2637, Metabolic Activation: RAT, LIVER, S-9, PHENOBARBITAL AND 5,6-BENZOFLAVONE, Method: PREINCUBATION): active; positive

CC(=O)OCc1ccc([N+](=O)[O-])cc1
mutagenic call [1]: inactive; negative | mutagenic call (Test System: AMES SALMONELLA TYPHIMURIUM, Strain/Indicator: TA100(NR), Metabolic Activation: NONE, Method: PREINCUBATION): inactive; negative | mutagenic call [2]: active; positive | mutagenic call (Test System: AMES SALMONELLA TYPHIMURIUM, Strain/Indicator: TA100, Metabolic Activation: RAT, LIVER, S-9, AROCLOR 1254, Method: PREINCUBATION): active; positive

O=NC1=Cc2nc3ccccn3c2NC1
mutagenic call [3]: active; positive | mutagenic call (Test System: AMES SALMONELLA TYPHIMURIUM, Strain/Indicator: TA98, Metabolic Activation: RAT, LIVER, CYTOSOL, AROCLOR 1254, Method: STANDARD PLATE): active; positive | mutagenic call (Test System: AMES SALMONELLA TYPHIMURIUM, Strain/Indicator: TA98, Metabolic Activation: RAT, LIVER, MICROSOMES, AROCLOR 1254, Method: STANDARD PLATE): inactive; negative | mutagenic call [4]: active; positive

O=C(O)/C=C(/CC(=O)O)C(=O)O
mutagenic call [3]: inactive; negative | mutagenic call [4]: inactive; negative | mutagenic call [5]: inactive; negative | mutagenic call (Test System: AMES SALMONELLA TYPHIMURIUM, Strain/Indicator: TA100, Metabolic Activation: RAT, LIVER, S-9, AROCLOR 1254, Method: STANDARD PLATE): inactive; negative | mutagenic call [6]: inactive; negative | mutagenic call (Test System: AMES SALMONELLA TYPHIMURIUM, Strain/Indicator: TA1535, Metabolic Activation: RAT, LIVER, S-9, AROCLOR 1254, Method: STANDARD PLATE): inactive; negative | mutagenic call [7]: inactive; negative | mutagenic call (Test System: AMES SALMONELLA TYPHIMURIUM, Strain/Indicator: TA1537, Metabolic Activation: RAT, LIVER, S-9, AROCLOR 1254, Method: STANDARD PLATE): inactive; negative

Cc1c(-c2cnccn2)ssc1=S
mutagenic call [3]: inactive; negative | mutagenic call (Test System: AMES SALMONELLA TYPHIMURIUM, Strain/Indicator: TA98, Metabolic Activation: RAT, LIVER, S-9, AROCLOR 1254 OR PHENOBARBITOL, Method: STANDARD PLATE): inactive; negative | mutagenic call [5]: inactive; negative | mutagenic call (Test System: AMES SALMONELLA TYPHIMURIUM, Strain/Indicator: TA100, Metabolic Activation: RAT, LIVER, S-9, AROCLOR 1254 OR PHENOBARBITOL, Method: STANDARD PLATE): inactive; negative | mutagenic call [6]: inactive; negative | mutagenic call (Test System: AMES SALMONELLA TYPHIMURIUM, Strain/Indicator: TA1535, Metabolic Activation: RAT, LIVER, S-9, AROCLOR 1254 OR PHENOBARBITOL, Method: STANDARD PLATE): inactive; negative | mutagenic call [7]: inactive; negative | mutagenic call (Test System: AMES SALMONELLA TYPHIMURIUM, Strain/Indicator: TA1537, Metabolic Activation: RAT, LIVER, S-9, AROCLOR 1254 OR PHENOBARBITOL, Method: STANDARD PLATE): inactive; negative | mutagenic call [8]: inactive; negative | mutagenic call (Test System: AMES SALMONELLA TYPHIMURIUM, Strain/Indicator: TA1538, Metabolic Activation: RAT, LIVER, S-9, AROCLOR 1254 OR PHENOBARBITOL, Method: STANDARD PLATE): inactive; negative

OCCCCCl
mutagenic call [1]: inactive; negative | mutagenic call [2]: active; positive | mutagenic call (Test System: AMES SALMONELLA TYPHIMURIUM, Strain/Indicator: TA100, Metabolic Activation: RAT, LIVER, S-9, KANECHLOR 500, Method: PREINCUBATION): active; positive

CCN(CCCl)CCCNc1c2ccccc2nc2c1ccc1cccnc12
mutagenic call [3]: active; positive | mutagenic call [5]: active; positive | mutagenic call [6]: inactive; negative | mutagenic call (Test System: AMES SALMONELLA TYPHIMURIUM, Strain/Indicator: TA1536, Metabolic Activation: NONE, Method: STANDARD PLATE): active; positive | mutagenic call [7]: active; positive | mutagenic call [8]: active; positive

O=[N+]([O-])C1=Cc2cccc3cccc(c23)O1
mutagenic call [3]: inactive; negative | mutagenic call (Test System: AMES SALMONELLA TYPHIMURIUM, Strain/Indicator: TA98, Metabolic Activation: S-9, Method: STANDARD PLATE): inactive; negative | mutagenic call [5]: active; positive | mutagenic call (Test System: AMES SALMONELLA TYPHIMURIUM, Strain/Indicator: TA100, Metabolic Activation: S-9, Method: STANDARD PLATE): inactive; negative

CN=c1ccc2nc3ccc(N)cc3sc-2c1
mutagenic call (Test System: Ames Salmonella typhimurium, Strain/Indicator: TA98, Metabolic Activation: None, Method: Preincubation): active; positive | mutagenic call (Test System: Ames Salmonella typhimurium, Strain/Indicator: TA98, Metabolic Activation: Rat, Liver, S-9, Aroclor 1254 (10%), Method: Preincubation): active; positive | mutagenic call (Test System: Ames Salmonella typhimurium, Strain/Indicator: TA100, Metabolic Activation: None, Method: Preincubation): active; positive | mutagenic call (Test System: Ames Salmonella typhimurium, Strain/Indicator: TA100, Metabolic Activation: Rat, Liver, S-9, Aroclor 1254 (10%), Method: Preincubation): active; positive | mutagenic call (Test System: E. coli, Strain/Indicator: WPM uvrA/pKM101, Metabolic Activation: None, Method: Preincubation): active; positive | mutagenic call (Test System: E. coli, Strain/Indicator: WPM uvrA/pKM101, Metabolic Activation: Rat, Liver, S-9, Aroclor 1254 (10%), Method: Preincubation): active; positive

COc1cc2c(cc1O)CC1c3c(cc(OC)c(O)c3-2)CC[N+]1(C)C (stereo not given)
mutagenic call (Test System: AMES SALMONELLA TYPHIMURIUM, Strain/Indicator: TA100, Metabolic Activation: RAT, LIVER, S-9, PHENOBARBITAL AND BETA-NAPHTHOFLAVONE, Method: PREINCUBATION): inactive; negative

CS(=O)(=O)Nc1ccc(Nc2c3ccc(N=[N+]=[N-])cc3nc3cc(N=[N+]=[N-])ccc23)cc1
mutagenic call [7]: active; positive
